Target: T1, CCR2 receptor (Homo sapiens, UniProt P41597)
T1 construct: host or cells: THP-1 human monocytic cell line
T1 sequence (P41597 1-360 isoform P41597-2): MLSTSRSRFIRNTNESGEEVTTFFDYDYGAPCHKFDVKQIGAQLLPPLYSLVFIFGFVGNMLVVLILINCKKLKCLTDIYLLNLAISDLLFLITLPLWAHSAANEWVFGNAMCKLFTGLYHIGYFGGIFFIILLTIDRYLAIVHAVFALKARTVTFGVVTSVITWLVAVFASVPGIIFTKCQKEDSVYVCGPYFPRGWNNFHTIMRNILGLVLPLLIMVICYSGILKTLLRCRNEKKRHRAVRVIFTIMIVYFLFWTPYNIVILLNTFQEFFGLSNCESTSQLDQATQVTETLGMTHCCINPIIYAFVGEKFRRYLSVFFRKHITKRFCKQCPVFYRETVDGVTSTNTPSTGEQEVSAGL
Test: Inhibition of MCP-1 induced Ca-flux in human THP-1 cells
Format: cell-based
Details: inhibition of specific MCP-1 (10^-7 M hMCP-1) induced Ca2+ flux in human THP-1 cells; pIC50 = -log IC50 (molar)
Procedure: C. Pharmacological Example Inhibition of MCP-1 Induced Ca-flux in Human THP-1 Cells
MCP-1 binding to the CCR2 receptor induces a rapid and transient intracellular release of Ca^2+ (secondary messenger) in several cell lines (Charo et al, PNAS 1994). Free Ca^2+ levels can be measured using a Ca^2+ sensitive dye. When the CCR2 receptor is blocked with a CCR2 receptor antagonist, the MCP-1 induced release of Ca^2+ is inhibited.
Human THP-1 cells (monocytic cell line, ATCC TIB-202) were cultured in RPMI 1640 medium supplemented with 10% fetal calf serum (FCS), 1% L-Glutamine, penicillin (50 U/ml) and streptomycin (50 μg/ml) (all GIBCO BRL, Gent). After centrifugation, cells were loaded for 30 minutes with the Ca^2+ sensitive fluorescent dye Fluo-3 AM (Molecular Probes, Leiden, Netherlands) (2 million cells/ml in RPMI medium containing 4 μM Fluo-3 AM, 20 mM HEPES, 0.1% Bovine Serum Albumin (BSA) and 5 mM probenecid). Excess dye was removed by 3-fold washing with buffer (5 mM HEPES, 140 mM NaCl, 1 mM MgCl2, 5 mM KCl, 10 mM glucose, 2.5 mM probenecid, 1.25 mM CaCl2, 0.1% BSA; all further incubations were done in this buffer). Cells were plated at a density of 150 000 cells/well in dark-wall 96-well plates (Costar, Cambridge, Mass.) and sedimented by centrifugation (1 minute). The cells were pre-incubated for 20 minutes with test compound. Then, 10^−7 M hMCP-1 (Bachem, Bubendorf, Switserland) was added. Changes in intracellular free Ca^2+ concentration were measured using the Fluorescent Imaging Plate Reader (FLIPR, Molecular Devices, Munchen, Germany). Fluorescence was recorded every second from 10 seconds before the addition of the MCP-1 till 2 minutes after the addition (first minute: 60 records with 1 second intervals, second minute 20 records with 3 second intervals).
The maximal fluorescence obtained during this time frame was used for further calculations.
Table 4 reports pIC50 values obtained in the above-described test for compounds of formula (I). pIC50 defines −log IC50 wherein IC50 is the molar concentration of the test compound which inhibits 50% of specific MCP-1 induced Ca^2+ flux.

| Structure (SMILES) | IC50 |
| --- | --- |
| CCC(c1ccc(Cl)c(Cl)c1)n1c(S)nc(C(=O)NC)c1C(=O)OC (centres unmarked) [Compound 87] | 33.1 nM |
| CCC(c1ccc(F)c(F)c1)n1c(S)nc(C(=O)OC)c1C(=O)OC (centres unmarked) [Compound 39] | 7.24 nM |
| CCC(c1ccc(F)c(C(F)(F)F)c1)n1c(C(=O)O)c[nH]c1=S (centres unmarked) [Compound 67] | 2340 nM |
| CCC(c1ccc(F)c(C(F)(F)F)c1)n1c(S)nc(C(=O)OC)c1C(=O)OC (centres unmarked) [Compound 3] | 17.4 nM |
| CCC(c1cc(F)c(F)c(F)c1)n1c(C(=O)OC)c[nH]c1=S (centres unmarked) [Compound 135] | 4270 nM |
| CCC(c1cc(Cl)cc(Cl)c1)n1c(C(=O)OC)c(C(=O)OC)[nH]c1=S (centres unmarked) [Compound 130] | 1660 nM |
| CCC(c1ccc(Cl)c(Cl)c1)n1c(S)nc(C(=O)O)c1C(=O)OC (centres unmarked) [Compound 68] | 841 nM |
| CCC(c1ccc(C(F)(F)F)c(F)c1)n1c(C(=O)OC)cnc1S (centres unmarked) [Compound 43] | 2000 nM |
| CCC(c1ccc(F)c(F)c1)n1c(C(=O)NC)cnc1S (centres unmarked) [Compound 36] | 2240 nM |
| COC(=O)c1c[nH]c(=S)n1C(c1ccc(Cl)c(Cl)c1)C1CC1 (centres unmarked) [Compound 2] | 2140 nM |
| CCC(c1ccc(F)c(F)c1)n1c(C(N)=O)cnc1S (centres unmarked) [Compound 9] | 465 nM |
| CCC(c1ccc(Cl)c(Cl)c1)n1c(S)nc(C(=O)OC(C)(C)C)c1C#N (centres unmarked) [Compound 78] | 813 nM |

The remaining molecules from weak to strong by IC50, led by results:

| IC50 | Structure (SMILES) |
| --- | --- |
| 468 nM | COC(=O)c1[nH]c(=S)n(C(c2ccc(Cl)c(Cl)c2)c2ccc(Cl)c(Cl)c2)c1C(=O)OC [Compound 150] |
| 331 nM | O=c1[nH][nH]c(=O)c2c1[nH]c(=S)n2C(c1ccc(Cl)c(Cl)c1)C1CC1 (centres unmarked) [Compound 77] |
| 240 nM | CCC(c1ccc(Cl)c(Cl)c1)n1c(C(N)=O)c(COC)[nH]c1=S (centres unmarked) [Compound 113] |
| 191 nM | CCC(c1ccc(Cl)c(Cl)c1)n1c(C(=O)OC)cnc1S (centres unmarked) [Compound 15] |
| 176 nM | CCC(c1ccc(Br)c(Br)c1)n1c(C(N)=O)c[nH]c1=S (centres unmarked) [Compound 138] |
| 174 nM | CCC(c1ccc(Cl)c(Cl)c1)n1c(S)nc(C(=O)O)c1C#N (centres unmarked) [Compound 88] |
| 138 nM | CCCC(c1ccc(Cl)c(Cl)c1)n1c(C(=O)OC)cnc1S (centres unmarked) [Compound 35] |
| 132 nM | CCC(c1ccc(Cl)c(Cl)c1)n1c(C(C)=O)c[nH]c1=S (centres unmarked) [Compound 81] |
| 130 nM | CCC(c1ccc(Cl)c(Cl)c1)n1c(C(=O)NCCO)c[nH]c1=S (centres unmarked) [Compound 105] |
| 112 nM | CCC(c1ccc(Cl)c(Cl)c1)n1c(C(=O)OC)c(C(=O)N2CCCCC2)[nH]c1=S (centres unmarked) [Compound 108] |
| 87.1 nM | CC[C@@H](c1ccc(Cl)c(Cl)c1)n1c(C(=O)OC)cnc1S [Compound 17] |
| 43.4 nM | CCC(c1ccc(Cl)c(Cl)c1)n1c(C(N)=O)cnc1S (centres unmarked) [Compound 59] |
| 39.8 nM | CCC(c1ccc(Cl)c(Cl)c1)n1c(C#N)c(C(=O)OC)[nH]c1=S (centres unmarked) [Compound 5] |

Test system: not given
Test: not given
Details: not given

| melting point | Structure (SMILES) |
| --- | --- |
| 172.7 to 175.2 °C | CCC(c1ccc(Cl)c(Cl)c1)n1c(S)nc(C(=O)OC(C)(C)C)c1C#N (centres unmarked) [Compound 78] |

— US7511068B2, “Mercaptoimidazoles as CCR2 receptor antagonists” (Janssen Pharmaceutica, N.V., priority 2003, dated 2009)
